Measured values published in patent publication US20230140216A1, “COMBINATION THERAPY FOR TREATING MPS1” (GAIN THERAPEUTICS SA, priority 2020, published 2023).

Molecular target: T1, Recombinant human α-L-iduronidase protein (Homo sapiens, UniProt P35475)
T1 construct: Ala26-Pro653 with a C-terminal 10_His tag; 10xHis (C); host or cells: HEK293f (stated in b1366 for the UAB protein)
T1 sequence (P35475 26-653): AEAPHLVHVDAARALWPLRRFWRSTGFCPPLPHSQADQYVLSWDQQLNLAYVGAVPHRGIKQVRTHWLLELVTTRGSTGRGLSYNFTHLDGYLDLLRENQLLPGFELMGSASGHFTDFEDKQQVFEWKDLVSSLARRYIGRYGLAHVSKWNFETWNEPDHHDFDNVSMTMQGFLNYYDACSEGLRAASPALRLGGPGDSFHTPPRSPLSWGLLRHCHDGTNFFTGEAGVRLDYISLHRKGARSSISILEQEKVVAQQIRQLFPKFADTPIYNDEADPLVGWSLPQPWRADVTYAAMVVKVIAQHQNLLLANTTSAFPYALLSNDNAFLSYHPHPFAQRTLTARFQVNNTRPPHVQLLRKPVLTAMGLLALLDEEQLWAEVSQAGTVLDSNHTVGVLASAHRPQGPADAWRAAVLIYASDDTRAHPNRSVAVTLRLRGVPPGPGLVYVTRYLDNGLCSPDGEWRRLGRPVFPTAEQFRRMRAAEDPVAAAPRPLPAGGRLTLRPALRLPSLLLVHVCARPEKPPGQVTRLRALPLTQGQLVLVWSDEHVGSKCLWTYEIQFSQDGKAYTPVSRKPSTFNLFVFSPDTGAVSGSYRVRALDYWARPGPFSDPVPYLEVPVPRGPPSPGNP
Assay: Denaturation prevention assay in neutral pH buffer
Type: biochemical
Settings: 30 µM compound, pH 7, 37° C.
Protocol: The capacity of Compounds of the Disclosure to stabilize α-L-iduronidase in neutral pH buffer was assessed using the denaturation prevention assay.
Briefly, recombinant human α-L-iduronidase protein (obtained in the Institute of Biotechnology and Biomedicine in the UAB, Bellaterra, Spain) was combined at a final concentration of 1 µM with 5X of SYPRO Orange and 30 µM of the corresponding compound in a final reaction volume of 25 µL in 100 mM Hepes 20 mM MgCl2 pH 7 buffer. Reactions were incubated at 37° C. and SYPRO Orange fluorescence intensity was monitored at the indicated time points using Glomax® Discover Microplate Reader from Promega (Madison, WI, USA).
The compound referred to as Compound A throughout this specification is the compound of Example 8 described above. […] (T=37° C.).

Question: With CCN(CC(=O)Nc1c(Cl)cccc1Cl)Cc1nc2ccsc2c(=O)[nH]1 [Compound A] as the compound, how does the “prevention of pH-induced IDUA denaturation” value read?
Answer: slows down pH-induced denaturation
